# Results as given in patent EP0428268A2, “Pharmaceutical phenylpyridone derivatives” (SMITH KLINE & FRENCH LABORATORIES LIMITED, priority 1989, dated 1991).
# Where two headings read alike, the source gives them in different places.
# Key:
# [1] = system: spontaneous colonic activity; test: Inhibition of spontaneous colonic activity in vitro (isolated distal colon, organ bath); design: species or system guinea-pigs; conditions: concentration reducing spontaneous colonic activity by 50%, guinea-pig distal colon, Krebs solution at 37°C, read-out: IC₅₀
# Text: Male albino guinea-pigs (300 - 400g) were killed by a blow to the back of the head and exsanguinated. A 2cm long segment of the proximal part of the hypogastric loop of the distal colon was rapidly dissected out and placed in oxygenated (95% O₂, 5% CO₂) modified warm Krebs solution. The tissue was cleaned out with Krebs and the adjoining mesentery discarded. Cotton was then tied to each end and the colon was attached to a tissue holder in an organ bath containing modified oxygenated Krebs solution at 37°C. The other end of the tissue was tied to an isometric transducer and placed under 1g tension. Force developed by the muscle was detected by the transducer, and recorded on a multitrace pen recorder. Spontaneous colonic activity, as assessed by the contraction distance over a five minute period, was subjected to computer analysis.
# The tissues were allowed to settle at a resting tension of 1g for 1 hour, during which time they were washed at 15 minute intervals. Three samples of pre-dose activity were taken and averaged. The tissues were then dosed and two samples of post-dose activity were taken. The lowest value was used to calculate the percentage relaxation, and log dose response curves were constructed. The tissues were washed 10 minutes after dosing and left for 15 minutes to settle prior to the next control period. […]
# ovalbumen = test: Anti-allergic activity (ovalbumen challenge in sensitised animals, tracheal inflation pressure); format: in vivo, Duncan Hartley guinea-pigs; conditions: dose of 17 µmol/kg i.v.; ovalbumen challenge 30 minutes following drug administration
# Experimental: Male Duncan Hartley guinea-pigs (250-300 g) were sensitised to ovalbumen by i.p. injection of 2 ml of 50mg.ml⁻¹ i.p. and 0.2 ml s.c. Three weeks later they were anaesthetised with 60mg.kg⁻¹ sodium pentabarbitone. The trachea was cannulated and the animal respired at a rate of 40 breaths per minute and at an initial tracheal inflation pressure of 16 mmHg. Tracheal inflation pressure was measured by a transducer connected to a side arm of the respiration circuit. The carotid artery was cannulated for the measurement of blood pressure and the signal was used to trigger an instantaneous rate meter. A jugular vein was cannulated for the administration of drug and allergen. After surgery the animals were allowed to stabilise and the drug was administered i.v. as a bolus. Following this, ovalbumen 1mg.kg⁻¹ was injected i.v. as the antigen challenge either 2, 15 or 30 minutes following drug treatment and the peak bronchoconstrictor response recorded. For the control group ovalbumen only was given. One ovalbumen challenge per guinea-pig was used and n = 6 for each time point. The percentage increase in tracheal inflation pressure was calculated.
compound,measurement,setting,value
"CCCOc1ccc(C(N)=O)cc1-c1ccc(C(N)=O)c(=O)[nH]1 [Example 13, 3-(3-Carboxamido-1,2-dihydro-2-oxo-6-pyidinyl)-4-propoxybenzamide]",IC50,[1],1.1 µM
"CC(C)COc1ccc(F)cc1-c1ccc(C(N)=O)c(=O)[nH]1 [Example 25, 6-(5-Fluoro-2-(2-methylpropoxy)phenyl)-1,2-dihydro-2-oxo-pyridine-3-carboxamide]",inhibition of the control bronchoconstrictor response,ovalbumen,40%
"CCCOc1cc(OC)ccc1-c1ccc(C(N)=O)c(=O)[nH]1 [Example 9(b), 1,2-Dihydro-6-(4-methoxy-2-propoxyphenyl)-2-oxo-3-pyridine carboxamide]",IC50,[1]; Cavia porcellus,3 µM
